# Data taken from patent US7585895B2, “Therapeutic substituted cyclopentanes” (Allergan, Inc., priority 2005, dated 2009).
# Tests used:
# [1] = target: EP2 (Homo sapiens, UniProt P43116); experiment: cAMP assay, HEK-EBNA cells expressing EP2; assay type: cell-based; set-up: expressed in transfected cells; host or cells: HEK-EBNA; conditions: value in parentheses in EP2 column, read-out: EP2 EC50 (nM), measurement of cAMP (data in parentheses)
# Procedure: A 384-well drug plate was prepared to contain 6 test compounds, PGE2 and cAMP in 16 serial dilutions in triplicate, using a Biomek station. HEK-EBNA cells expressing a target PG receptor subtype (EP2 or EP4) were suspended in a stimulation buffer (HBSS, 0.1% BSA, 0.5 mM IBMX and 5 mM HEPES, pH 7.4) in a density of 10^4 cells/5 μl. The reaction was initiated by mixing 5 μL drug dilutions with 5 μl of HEK-EBNA cells in a well, carried out for 30 min at room temperature, and followed by the addition of 5 μl anti-cAMP acceptor beads in the control buffer with Tween-20 (25 mM NaCl, 0.03% Tween-20, 5 mM HEPES, pH7.4). After 30 min in the dark at room temperature, the mixtures were incubated with 15 μl biotinylated-cAMP/strepavidin donor beads in Lysis/Detection buffer (0.1% BSA, 0.3% Tween-20 and 5 mM HEPES, pH7.4) for 45 min at the room temperature. Fluorescence changes were read using a Fusion-alpha HT microplate reader.
# [2] = target: T1, hFP (Homo sapiens, UniProt P43088); experiment: FLIPR calcium signal, FP; assay type: cell-based; conditions: HEK-293(EBNA)
# T1 construct: expressed in transfected cells
# T1 sequence (P43088 whole entry): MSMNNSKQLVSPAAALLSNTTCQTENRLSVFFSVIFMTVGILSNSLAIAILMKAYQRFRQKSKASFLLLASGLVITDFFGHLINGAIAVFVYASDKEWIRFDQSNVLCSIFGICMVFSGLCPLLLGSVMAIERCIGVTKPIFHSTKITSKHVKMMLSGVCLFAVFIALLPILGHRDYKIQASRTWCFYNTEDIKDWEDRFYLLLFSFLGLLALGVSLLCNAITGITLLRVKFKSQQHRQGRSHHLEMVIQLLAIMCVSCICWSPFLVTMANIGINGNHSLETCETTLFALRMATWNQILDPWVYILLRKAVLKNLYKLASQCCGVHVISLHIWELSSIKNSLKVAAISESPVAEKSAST
# Procedure: (§1) HEK-293(EBNA) cells, stably expressing one type or subtype of recombinant human prostaglandin receptors (prostaglandin receptors expressed: hDP/Gqs5; hEP1; hEP2/Gqs5; hEP3A/Gqi5; hEP4/Gqs5; hFP; hIP; hTP), were cultured in 100 mm culture dishes in high-glucose DMEM medium containing 10% fetal bovine serum, 2 mM 1-glutamine, 250 μg/ml geneticin (G418) and 200 μg/ml hygromycin B as selection markers, and 100 units/ml penicillin G, 100 μg/ml streptomycin and 0.25 μg/ml amphotericin B.
# (§2) Cells were seeded at a density of 5×10^4 cells per well in Biocoat® Poly-D-lysine-coated black-wall, clear-bottom 96-well plates (Becton-Dickinson) and allowed to attach overnight in an incubator at 37° C. Cells were then washed two times with HBSS-HEPES buffer (Hanks Balanced Salt Solution without bicarbonate and phenol red, 20 mM HEPES, pH 7.4) using a Denley Cellwash plate washer (Labsystems). After 45 minutes of dye-loading in the dark, using the calcium-sensitive dye Fluo-4 AM at a final concentration of 2 μM, plates were washed four times with HBSS-HEPES buffer to remove excess dye leaving 100 μl in each well. Plates were re-equilibrated to 37° C. for a few minutes.
# (§3) Cells were excited with an Argon laser at 488 nm, and emission was measured through a 510-570 nm bandwidth emission filter (FLIPR™, Molecular Devices, Sunnyvale, Calif.). Drug solution was added in a 50 μl volume to each well to give the desired final concentration. The peak increase in fluorescence intensity was recorded for each well. On each plate, four wells each served as negative (HBSS-HEPES buffer) and positive controls (standard agonists: BW245C (hDP); PGE2 (HEP1; hEP2/Gqs5; hEP3A/Gqi5; hEP4/Gqs5); PGF2α (hFP); carbacyclin (hIP); U-46619 (hTP), depending on receptor). The peak fluorescence change in each drug-containing well was then expressed relative to the controls.
# (§4) Compounds were tested in a high-throughput (HTS) or concentration-response (CoRe) format. In the HTS format, forty-four compounds per plate were examined in duplicates at a concentration of 10^−5 M. To generate concentration-response curves, four compounds per plate were tested in duplicates in a concentration range between 10^−5 and 10^−11 M. The duplicate values were averaged. In either, HTS or CoRe format each compound was tested on at least 3 separate plates using cells from different passages to give an n≧3.
# [3] = target: T2, hEP4/Gqs5 (Homo sapiens, UniProt P35408); experiment: FLIPR calcium signal, EP4; assay type: cell-based; conditions: HEK-293(EBNA); for EC50: read-out: Ca2+ Signal-EC50 (nM) EP4
# T2 construct: expressed in transfected cells
# T2 sequence (P35408 whole entry): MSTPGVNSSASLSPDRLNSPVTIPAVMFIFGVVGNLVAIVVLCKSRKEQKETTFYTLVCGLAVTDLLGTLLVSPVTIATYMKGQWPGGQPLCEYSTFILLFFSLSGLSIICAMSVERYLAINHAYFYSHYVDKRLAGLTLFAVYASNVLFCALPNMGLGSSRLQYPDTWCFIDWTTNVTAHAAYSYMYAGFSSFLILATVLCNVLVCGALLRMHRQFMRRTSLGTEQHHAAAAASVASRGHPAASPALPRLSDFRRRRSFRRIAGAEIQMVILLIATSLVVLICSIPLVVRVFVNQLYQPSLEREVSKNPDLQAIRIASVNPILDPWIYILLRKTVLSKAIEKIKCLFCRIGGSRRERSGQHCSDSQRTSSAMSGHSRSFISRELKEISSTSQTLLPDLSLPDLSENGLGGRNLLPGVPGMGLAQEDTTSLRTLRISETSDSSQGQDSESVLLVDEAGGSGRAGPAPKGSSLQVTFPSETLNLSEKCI
# Procedure: as §1, §2, §3, §4
# [4] = target: T3, hTP (Homo sapiens, UniProt P21731); experiment: FLIPR calcium signal, TP; assay type: cell-based; conditions: HEK-293(EBNA)
# T3 construct: expressed in transfected cells
# T3 sequence (P21731 1-343): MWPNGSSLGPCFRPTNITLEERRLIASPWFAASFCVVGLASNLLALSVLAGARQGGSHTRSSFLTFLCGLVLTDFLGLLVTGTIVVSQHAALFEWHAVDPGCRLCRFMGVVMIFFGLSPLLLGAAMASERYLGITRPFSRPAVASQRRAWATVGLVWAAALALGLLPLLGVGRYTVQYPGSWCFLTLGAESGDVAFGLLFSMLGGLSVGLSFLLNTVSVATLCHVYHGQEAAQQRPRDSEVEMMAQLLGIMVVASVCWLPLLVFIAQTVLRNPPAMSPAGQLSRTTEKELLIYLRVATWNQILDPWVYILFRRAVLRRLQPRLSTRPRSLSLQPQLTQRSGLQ
# Procedure: as §1, §2, §3, §4
# [5] = target: T4, EP4 receptors (Homo sapiens, UniProt P35408); experiment: Radioligand binding, [3H]PGE2, EP4 (Ki); conditions: HEK-293 cells stably expressing EP4, [3H]PGE2
# T4 construct: expressed in transfected cells; membrane pellet
# T4 sequence (P35408 whole entry): as the sequence (P35408 whole entry) above
# Procedure: HEK-293 cells stably expressing the human or feline FP receptor, or EP1, EP2, or EP4 receptors were washed with TME buffer, scraped from the bottom of the flasks, and homogenized for 30 sec using a Brinkman PT 10/35 polytron. TME buffer was added to achieve a final 40 ml volume in the centrifuge tubes (the composition of TME is 100 mM TRIS base, 20 mM MgCl2, […]; 10N HCl is added to achieve a pH of 7.4).
# The cell homogenate was centrifuged at 19000 r.p.m. for 20 min at 4° C using a Beckman Ti-60 rotor. The resultant pellet was resuspended in TME buffer to give a final 1 mg/ml protein concentration, as determined by Biorad assay. Radioligand binding competition assays vs. [^3H-]17-phenyl PGF2α. (5 nM) were performed in a 100 μl volume for 60 min. Binding reactions were started by adding plasma membrane fraction. The reaction was terminated by the addition of 4 ml ice-cold TRIS-HCl buffer and rapid filtration through glass fiber GF/B filters using a Brandel cell harvester. The filters were washed 3 times with ice-cold buffer and oven dried for one hour.
# [^3H-] PGE2 (specific activity 180 Ci mmol) was used as the radioligand for EP receptors. [^3H] 17-phenyl PGF2α, was employed for FP receptor binding studies. Binding studies employing EP1, EP2, EP4 and FP receptors were performed in duplicate in at least three separate experiments. A 200 μl assay volume was used. Incubations were for 60 min at 25° C. and were terminated by the addition of 4 ml of ice-cold 50 mM TRIS-HCl, followed by rapid filtration through Whatman GF/B filters and three additional 4 ml washes in a cell harvester (Brandel). Competition studies were performed using a final concentration of 5 nM [^3H]-PGE2, or 5 nM [^3H] 17-phenyl PGF2αand non-specific binding determined with 10^−5M of unlabeled PGE2, or 17-phenyl PGF2α, according to receptor subtype studied.
# Sequence of EP2 (P43116 whole entry): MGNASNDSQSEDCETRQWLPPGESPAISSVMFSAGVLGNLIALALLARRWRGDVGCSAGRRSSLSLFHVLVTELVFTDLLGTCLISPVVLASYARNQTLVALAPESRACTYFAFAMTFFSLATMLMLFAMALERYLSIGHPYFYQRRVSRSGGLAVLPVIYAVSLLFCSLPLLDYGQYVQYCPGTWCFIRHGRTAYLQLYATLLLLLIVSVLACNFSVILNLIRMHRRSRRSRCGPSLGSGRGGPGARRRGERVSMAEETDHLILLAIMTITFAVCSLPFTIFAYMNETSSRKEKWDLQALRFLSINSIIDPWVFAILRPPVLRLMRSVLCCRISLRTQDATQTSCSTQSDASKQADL
Compound,EC50 [1] [nM],Ca2+ Signal-EC50 (nM) FP [2],EC50 [3] [nM],Ca2+ Signal-EC50 (nM) TP [4],Ki [5] [nM],Ca2+ Signal-EC50 (nM) EP4 [3]
"CCCCCCc1ccc([C@@H]2[C@@H](C/C=C\CCCC(=O)O)[C@H](Cl)C[C@H]2O)cc1 [Entry 33, (Z)-7-[(1R,2S,3R,5R)-5-Chloro-2-(4-hexyl-phenyl)-3-hydroxy-cyclopentyl]-hept-5-enoic acid]",27,not active,> 10000,not active,> 10000,–
"O=C(O)CCC/C=C\C[C@@H]1[C@@H](c2ccc(C(O)Cc3ccccc3)cc2)[C@H](O)C[C@H]1Cl (mixture of isomers) [Entry 21, (Z)-7-{(1R,2S,3R,5R)-5-Chloro-3-hydroxy-2-[4-(1-hydroxy-2-phenyl-ethyl)-phenyl]-cyclopentyl}-hept-5-enoic acid]",14,not active,> 10000,not active,> 10000,–
"CCCC(O)c1ccc([C@@H]2[C@@H](C/C=C\CCCC(=O)O)[C@H](Cl)C[C@H]2O)cc1 (stereo partly drawn) [Entry 26, (Z)-7-{(1R,2S,3R,5R)-5-Chloro-3-hydroxy-2-[4-(1-hydroxy-butyl)-phenyl]-cyclopentyl}-hept-5-enoic acid]",7,not active,–,not active,> 10000,not active
"CCCC1(C(O)c2cccc([C@@H]3[C@@H](Cc4cccc(CCC(=O)O)c4)[C@H](Cl)C[C@H]3O)c2)CCC1 (stereo partly drawn) [Entry 4, 3-[3-((1R,2S,3R,5R)-5-Chloro-3-hydroxy-2-{3-[hydroxy-(1-propyl-cyclobutyl)-methyl]-phenyl}-cyclopentylmethyl)-phenyl]-propionic acid]",69,not active,> 10000,not active,> 10000,–
"O=C(O)CCCCCC[C@@H]1[C@@H](c2ccc(C(O)CCc3ccccc3)cc2)[C@H](O)C[C@H]1Cl (stereo partly drawn) [Entry 24, 7-{(1R,2S,3R,5R)-5-Chloro-3-hydroxy-2-[4-(1-hydroxy-3-phenyl-propyl)-phenyl]-cyclopentyl}-heptanoic acid]",628,not active,> 10000,not active,> 10000,–
"CCCCC(O)C(C)(C)c1ccc([C@@H]2[C@@H](C/C=C\CCCC(=O)O)[C@H](Cl)C[C@H]2O)cc1 (mixture of isomers) [Entry 32, (Z)-7-{(1R,2S,3R,5R)-5-Chloro-3-hydroxy-2-[4-(2-hydroxy-1,1-dimethyl-hexyl)-phenyl]-cyclopentyl}-hept-5-enoic acid]",9,not active,–,not active,9640,not active
"CCCCCC(O)c1ccc([C@@H]2[C@@H](CCCc3ccc(C(=O)O)s3)[C@H](Cl)C[C@H]2O)cc1 (stereo partly drawn) [Entry 2, 5-(3-{(1R,2S,3R,5R)-5-Chloro-3-hydroxy-2-[4-(1-hydroxy-hexyl)-phenyl]-cyclopentyl}-propyl)-thiophene-2-carboxylic acid]",2,not active,–,not active,3020,not active

# The remaining lines, values ahead:
EC50 [1] [nM],Ca2+ Signal-EC50 (nM) FP [2],EC50 [3] [nM],Ca2+ Signal-EC50 (nM) TP [4],Ki [5] [nM],Ca2+ Signal-EC50 (nM) EP4 [3],Compound
76,not active,> 10000,not active,8610,–,"CCCCCC(O)c1ccc([C@@H]2[C@@H](CCCCCCC(=O)O)[C@H](Cl)C[C@H]2O)cc1 (stereo partly drawn) [Entry 14, 7-{(1R,2S,3R,5R)-5-Chloro-3-hydroxy-2-[4-(1-hydroxy-hexyl)-phenyl]-cyclopentyl}-heptanoic acid]"
176,not active,–,not active,3810,not active,"O=C(O)CCC/C=C\C[C@@H]1[C@@H](c2ccc(C(O)CCC3CCCCC3)cc2)[C@H](O)C[C@H]1Cl (stereo partly drawn) [Entry 15, (Z)-7-{(1R,2S,3R,5R)-5-Chloro-2-[4-(3-cyclohexyl-1-hydroxy-propyl)-phenyl]-3-hydroxy-cyclopentyl}-hept-5-enoic acid]"
495,not active,–,not active,15900,not active,"O=C(O)CCC/C=C\C[C@@H]1[C@@H](c2ccc(C(O)CC3CCCCC3)cc2)[C@H](O)C[C@H]1Cl (mixture of isomers) [Entry 17, (Z)-7-{(1R,2S,3R,5R)-5-Chloro-2-[4-(2-cyclohexyl-1-hydroxy-ethyl)-phenyl]-3-hydroxy-cyclopentyl}-hept-5-enoic acid]"
2660,not active,> 10000,not active,4940,–,"O=C(O)CCCCCC[C@@H]1[C@@H](c2ccc(C(O)CC3CCCCC3)cc2)[C@H](O)C[C@H]1Cl (stereo partly drawn) [Entry 18, 7-{(1R,2S,3R,5R)-5-Chloro-2-[4-(2-cyclohexyl-1-hydroxy-ethyl)-phenyl]-3-hydroxy-cyclopentyl}-heptanoic acid]"
